Results on 1 compound are retold here after article PMC12713470, “Design and Synthesis of Novel Chalcone Derivatives Targeting Bladder and Liver Cancer: Cytotoxicity Evaluation and Preliminary Mechanistic Studies” (ACS Omega, 2025).

Read-outs that look alike come from different tables or passages of the source.

The subject of test [1] is HepG2: human liver hepatocellular carcinoma cells. Also noted: method as in PMID 37944413. Conditions: hit compound, earlier study of the group; read-out: IC50 HepG2 (earlier work); cited from earlier work.
For test [2], the system named is T24: human urinary bladder carcinoma cells. The test can be described thus: MTT cytotoxicity assay on T24 cells. It is filed as cell-based. The protocol:
(§1) Cytotoxicity was determined using the MTT colorimetric assay, and half-maximal inhibitory concentrations (IC50, μM) were obtained for all cell lines (Table ). The selectivity index (SI) was calculated as the ratio of IC50 MRC-5/IC50 cancer cell line. Doxorubicin was employed as a positive control due to its broad-spectrum clinical use, either alone or in combination, against hepatocellular, ovarian, cervical, and bladder cancers. −
(§2) In vitro biological assays were performed by using five human cell lines for cytotoxicity evaluation. HepG2 cells (ATCC HB-8065), derived from a human hepatocellular carcinoma of the liver (person), were cultured in Dulbecco’s modified Eagle medium (DMEM) supplemented with 5% fetal bovine serum (FBS), penicillin/streptomycin (100 IU/mL), and amphotericin B (5 μg/mL), in a humidified incubator with 5% CO2 at 37 °C. These cells were plated at a concentration of 2.0 × 10^4 cells/well in 96-well microplates. MRC-5 cells (ATCC CCL-171), derived from human lung fibroblasts of a […] fetus, were cultured under the same conditions and plated at 1.0 × 10^4 cells/well. T24 cells (ATCC HTB-4), established from a transitional cell carcinoma of the bladder (person), were also cultured under identical conditions and plated at a density of 1.0 × 10^4 cells/well. TOV-21G cells (ATCC CRL-11730), derived from a primary malignant ovarian adenocarcinoma (person), were maintained in DMEM with the same supplementation and environmental conditions and plated at 5.0 × 10^4 cells/well. […]
(§3) HeLa, HepG2, MRC-5, T24, and TOV-21G cells were suspended in a culture medium supplemented with 5% fetal bovine serum (FBS) and seeded into 96-well microplates. The plates were incubated under a humidified atmosphere containing 5% CO2 at 37 °C for 24 h, allowing for adherence and monolayer formation. , Eight serial dilutions of the test samples, previously solubilized in dimethyl sulfoxide (DMSO), were prepared in DMEM supplemented with 1% FBS, covering a concentration range from […], and the results were converted to […]. The volume of DMSO in each well was limited to a final concentration not exceeding 2%. Following monolayer formation, the culture medium was aspirated and replaced with 100 μL of the diluted test samples and 100 μL of DMEM containing 1% FBS. The plates were then incubated under the same atmospheric and temperature conditions.
(§4) Two hours prior to end point reading, 20 μL of MTT [3-(4,5-dimethylthiazol-2-yl)-2,5-diphenyltetrazolium bromide] solution (1.0 mg/mL in sterile phosphate-buffered saline, Sigma-Aldrich) was added to each well. The incubation period following sample addition varied according to the cell line: 24 h for MRC-5, 48 h for T24, and 72 h for HeLa, HepG2, and TOV-21G. After the appropriate incubation, absorbance was measured by using a VICTOR X3 microplate reader (PerkinElmer), and data were processed with WorkOut 2.5 software at a wavelength of 490 nm. Formazan formation, resulting from the MTT reduction by metabolically active cells, was used as an indirect measure of cell viability. The percentage of cytotoxicity was calculated using the equation % cytotoxicity = [(A – B)/A] × 100, where A is the optical density (OD4 9 0) of untreated control cells and B is the OD4 9 0 of treated cells.
(§5) Cytotoxicity was expressed as the 50% cytotoxic concentration (CC5 0), representing the concentration of sample required to reduce cell viability by 50% relative to that of the untreated control.
Background: Tetrazolium assays rely on reduction of a dye to a coloured formazan, in cell work by metabolically active cells.

In test [3] the test system is HepG2: human liver hepatocellular carcinoma cells. The test can be described thus: MTT cytotoxicity assay on HepG2 cells. The class given is cell-based. On the procedure: as §1, §2, §3, §4, §5
Test [4] relates to TOV-21G: human ovarian adenocarcinoma cells. The test is described as follows: MTT cytotoxicity assay on TOV-21G cells. The class given is cell-based. The protocol: as §1, §2, §3, §4, §5
For test [5], the system named is MRC-5: human lung fibroblast cells. The test can be described thus: MTT cytotoxicity assay on MRC-5 cells. It is filed as cell-based. Conditions: MRC5, 24 h incubation, n = 3, ± standard deviation. The protocol:
as §1, §2, §3, §4, §5

The test system of another test is HepG2 cells. Also noted: method as in PMID 37944413. Particulars: hit compound, earlier study of the group; cited from earlier work.

The IC50 is the midpoint of a concentration-inhibition curve. As to `CCCc1cc(/C=C/C(=O)c2ccc(C)cc2)c(O)c(OC)c1` [compound 1], the concentration for half-maximal inhibition (IC50) in test [1] was 4.25 µM; in test [2] (Homo sapiens, T-24, MTT, 48 h incubation, n = 3, NA: noncytotoxic at the concentrations tested) it was above 161 µM; in test [3] (Homo sapiens, HepG2, MTT, 72 h incubation, n = 3, NA: noncytotoxic at the concentrations tested), 4.2 ± 1.3 µM; in test [4] (Homo sapiens, TOV21G, MTT, 72 h incubation, n = 3, NA: noncytotoxic at the concentrations tested) it was 7.2 ± 1.3 µM; in test [5] it was 47.2 ± 1.3 µM. Further, the “SI (T24)” value in test [2] (IC50 MRC-5/IC50 T24) is reported as below 0.2. Further, the “SI (HepG2)” value in test [3] (IC50 MRC-5/IC50 HepG2) is given as 11.1. Besides, in test [4] (IC50 MRC-5/IC50 TOV-21G), the “SI (TOV-21G)” value was 6.5. In the test on HepG2 cells, the “HepG2 cell migration (earlier work)” value is “inhibiting HepG2 cell migration”.
